The target in test [1] is T1, SMAD4–SMAD3 MH2 domain PPI (Homo sapiens, UniProt P84022+Q13485).
T1 construct: GST-SMAD4-MH2 and VF-SMAD3-MH2 (C and D); expressed in transfected cells; host or cells: HEK293T (lysate)
Description: GST pull-down assay, SMAD4–SMAD3 MH2 domains. It is filed as binding. As for the experimental part:
(§1) To validate the hits from the pilot screening, we performed the orthogonal GST pull-down assay using cell lysates from HEK293T cells transfected with Venus-flag-SMAD3 and GST-SMAD4 or Venus-flag-SMAD3-MH2 and GST-SMAD4-MH2. After 48 h of transfection, the cells were lysed in 1% NP-40 lysis buffer, incubated with compounds for 16 h with rotation at 4°C, and then incubated with glutathione-conjugated beads (GE 17527901) for 2 h at 4°C. Beads were washed twice with 1% NP-40 lysis buffer, eluted by boiling in sodium dodecyl sulfate (SDS) sample buffer (Bio-Rad), and subjected to western blot analysis. Proteins in SDS sample buffer were resolved by 10% SDS polyacrylamide gel electrophoresis and transferred to nitrocellulose filter membranes at 100 V for 2 h at 4°C. After blocking in 5% nonfat dry milk in TBST (20 mM Tris-base, 150 mM NaCl, and 0.05% Tween 20) for 1 h at room temperature, the membranes were blotted with the indicated antibodies, mouse monoclonal anti-FLAG-HRP antibody (Sigma‒Aldrich, # A8592) and rabbit polyclonal anti-GST-HRP antibody (Sigma‒Aldrich, Cat# A7340), at 4°C overnight. The membranes were washed three times with 1× TBST for 15 min. […] Luminescence images were captured using the ChemiDoc^TM Touch Imaging System (Bio-Rad).

The target in a further test is T2, SMAD4–SMAD3 PPI (Homo sapiens, UniProt P84022+Q13485).
T2 construct: expressed in transfected cells; host or cells: HEK293T (transient co-transfection, lysate used)
T2 sequence (Q13485 whole entry): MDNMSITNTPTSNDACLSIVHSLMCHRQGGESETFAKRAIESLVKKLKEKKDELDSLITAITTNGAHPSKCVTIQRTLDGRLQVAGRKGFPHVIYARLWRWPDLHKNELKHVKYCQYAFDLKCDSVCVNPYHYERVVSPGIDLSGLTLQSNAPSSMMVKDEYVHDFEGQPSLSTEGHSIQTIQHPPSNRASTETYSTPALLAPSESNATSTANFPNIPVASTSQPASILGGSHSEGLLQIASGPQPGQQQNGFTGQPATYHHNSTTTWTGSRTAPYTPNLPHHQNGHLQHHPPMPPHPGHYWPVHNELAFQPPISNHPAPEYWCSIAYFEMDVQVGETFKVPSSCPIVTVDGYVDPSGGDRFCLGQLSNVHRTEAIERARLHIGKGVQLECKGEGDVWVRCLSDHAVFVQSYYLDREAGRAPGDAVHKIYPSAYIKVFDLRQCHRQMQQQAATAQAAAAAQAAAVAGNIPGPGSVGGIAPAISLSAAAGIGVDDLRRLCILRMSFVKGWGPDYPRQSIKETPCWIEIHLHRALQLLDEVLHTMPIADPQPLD
T2 sequence (P84022 whole entry): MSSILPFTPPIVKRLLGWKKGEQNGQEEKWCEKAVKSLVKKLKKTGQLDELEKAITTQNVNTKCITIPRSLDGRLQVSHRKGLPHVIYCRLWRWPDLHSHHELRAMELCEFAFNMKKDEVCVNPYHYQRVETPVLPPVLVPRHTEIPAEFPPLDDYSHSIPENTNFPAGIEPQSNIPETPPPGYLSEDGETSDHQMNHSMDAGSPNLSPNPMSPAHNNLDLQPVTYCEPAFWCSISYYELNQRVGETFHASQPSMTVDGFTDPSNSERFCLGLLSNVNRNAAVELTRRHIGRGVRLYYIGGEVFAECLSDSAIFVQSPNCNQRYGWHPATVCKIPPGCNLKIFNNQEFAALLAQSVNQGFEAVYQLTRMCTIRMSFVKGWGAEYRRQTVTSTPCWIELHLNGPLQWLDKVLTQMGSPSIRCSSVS
The test is described as follows: Multiplexed TR-FRET assay, Tb–D2 PPI readout (cell lysate-based). It is filed as binding. To be noted: for inhibition of PPI signal compared to DMSO control, primary screen: 1536-well uHTS, 20 μM, single point.

Test [2] deals with TGFβ-induced SBE4-luc reporter activity in HEK293T cells. Description: SBE luciferase reporter assay. To be noted: 5 μM compound, TGFβ 10 ng/ml, 18 h. It is filed as cell-based, Human. The method, then:
SMAD3/SMAD4 complex transcriptional activity was measured using the SBE-luciferase reporter system. HEK293T cells were used to measure the luciferase activity. Cells were plated in 6-well plates and co-transfected with SBE4-Luc plasmid (1 μg, Addgene, 16495) and pDEST26-Renilla plasmid (0.1 μg) using FuGENE® HD (Promega, #E2312). After 24 h of transfection, the cells were pre-treated with GA (MedChemExpress, #HY-N0087) or GNA (MedChemExpress, #HY-5024) at 5 μM for 6 h followed by TGFβ (10 ng/ml, R&D Systems, #240-B) stimulation for an additional 18 h. Renilla and firefly luciferase activities were measured by an Envision Multilabel plate reader (PerkinElmer) using a Dual-Glo luciferase kit (Promega, Cat# E2920) according to the manufacturer's instructions. The normalized luminescence was calculated as the ratio of the luminescence of firefly luciferase over the luminescence of Renilla luciferase.

Test [3] deals with T3, SMAD–SBE4 PDI (SMAD4–SMAD3–DNA complex) (Homo sapiens, UniProt P84022+Q13485).
T3 construct: expressed in transfected cells; host or cells: HEK293T (transient co-transfection, lysate used)
T3 sequence (Q13485 whole entry): as the sequence (Q13485 whole entry) above
T3 sequence (P84022 whole entry): as the sequence (P84022 whole entry) above
The test is described as follows: Multiplexed TR-FRET assay, Tb–FAM PDI readout (cell lysate-based). It is filed as binding. The settings on record: for inhibition of PDI signal compared to DMSO control, primary screen: 1536-well uHTS, 20 μM, single point.

Test [4] concerns TGFβ-induced migration of A549 cells. Description: Wound-healing assay. It is filed as cell-based. The settings on record: 5 μM compound, TGFβ 10 ng/ml, A549 NucLight Red. The method, then: Briefly, A549 NucLight Red cells were seeded in 96-well plates (Greiner, Cat# 655087) at 40000 cells/well in RPMI 1640 media supplemented with 10% FBS and 1% antibiotics. After 24 h, a wound scratch was created in the confluent cell monolayer using a 96-well woundmaker (Sartorius), followed by washing three times with PBS. Then, the medium was replaced with RPMI 1640 medium without FBS. TGFβ (10 ng/ml), GA (5 μM), or GNA (5 μM) was added at the indicated concentrations. After 24 h of treatment, the plates were imaged using the ImageXpress Micro High-Content Imaging System (Molecular Device). The wound-healing activity was quantified by measuring the width (W) of the wound using ImageJ and expressed as […] × 100.

For test [5], the target named is T4, full-length SMAD4–SMAD3 PPI (Homo sapiens, UniProt P84022+Q13485).
T4 construct: expressed in transfected cells; host or cells: HEK293T (lysate)
T4 sequence (Q13485 whole entry): as the sequence (Q13485 whole entry) above
T4 sequence (P84022 whole entry): as the sequence (P84022 whole entry) above
The test is described as follows: GST pull-down assay, full-length SMAD4–SMAD3. It is filed as binding. As for the experimental part:
as §1

Where two headings read alike, the source gives them in different places.

T1 sequence (Q13485 323-552): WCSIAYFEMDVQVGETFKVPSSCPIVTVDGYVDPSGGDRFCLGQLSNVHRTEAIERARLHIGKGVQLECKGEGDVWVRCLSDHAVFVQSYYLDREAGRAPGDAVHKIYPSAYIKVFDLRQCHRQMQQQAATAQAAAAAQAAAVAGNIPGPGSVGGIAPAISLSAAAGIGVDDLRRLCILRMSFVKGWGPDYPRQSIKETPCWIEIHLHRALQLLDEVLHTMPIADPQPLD
T1 sequence (P84022 232-425): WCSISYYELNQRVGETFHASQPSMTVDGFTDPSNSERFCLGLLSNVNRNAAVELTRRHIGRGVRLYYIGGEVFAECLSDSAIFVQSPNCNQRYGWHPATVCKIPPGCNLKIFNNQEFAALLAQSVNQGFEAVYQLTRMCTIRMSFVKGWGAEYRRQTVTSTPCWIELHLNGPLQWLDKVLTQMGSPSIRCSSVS

`CC(C)=CCC[C@]1(C)C=Cc2c(O)c3c(c(CC=C(C)C)c2O1)O[C@]12C(=C[C@@H]4C[C@H]1C(C)(C)O[C@@]2(C/C=C(/C)C(=O)O)C4=O)C3=O` [GA, gambogic acid]: the IC50 in test [1] (GST-SMAD4-MH2 and VF-SMAD3-MH2 lysates, densitometry of western blots, read-out: IC50, inhibition of the PPI of SMAD4–SMAD3 MH2 domains) is ~11.4 µM; on SMAD4–SMAD3 PPI (TR-FRET dose–response confirmation with re-ordered compounds, lysate co-expressing His-SMAD4 and Flag-SMAD3, read-out: IC50, decrease in the PPI signal), 4.3 ± 0.5 µM; in test [3] (TR-FRET dose–response confirmation with re-ordered compounds, 5′-FAM-SBE4 dsDNA, read-out: IC50, decrease in the PDI signal) it was 36 ± 9.4 µM; in test [5] (GST-SMAD4 and VF-SMAD3 lysates, densitometry of western blots, read-out: IC50, decrease of SMAD3 protein in the pull-down GST-SMAD4 complex), ~11.4 µM. The “inhibition of PPI signal compared to DMSO control, primary screen” value against SMAD4–SMAD3 PPI is reported as “robust inhibitory effects”. In addition, the “TGFβ-induced SBE4-luc activity” value in test [2] was “significant reduction”. Besides, the “inhibition of PDI signal compared to DMSO control, primary screen” value in test [3] is recorded as “robust inhibitory effects”. The “TGFβ-induced A549 cell migration (wound healing)” value in test [4] is on record as “significantly reduced”.

As to `CC(C)=CCC/C(C)=C/Cc1c(O)c(CC=C(C)C)c2c(c1O)C(=O)C1=C[C@@H]3C[C@H]4C(C)(C)O[C@@](C/C=C(/C)C(=O)O)(C3=O)[C@@]14O2` [GNA, gambogenic acid], the half-maximal inhibitory concentration (IC50) was ~9 µM in test [1], 6.4 ± 1.6 µM at SMAD4–SMAD3 PPI, 27.6 ± 4.8 µM in test [3] and ~8.9 µM in test [5]. Moreover, at SMAD4–SMAD3 PPI, the “inhibition of PPI signal compared to DMSO control, primary screen” value is on record as “robust inhibitory effects”. The “TGFβ-induced SBE4-luc activity” value in test [2] was “significant reduction”. For the same compound, the “inhibition of PDI signal compared to DMSO control, primary screen” value in test [3] is reported as “robust inhibitory effects”. In addition, the “TGFβ-induced A549 cell migration (wound healing)” value in test [4] is given as “significantly reduced”.

(Values after publication PMC11063955, “A multiplexed time-resolved fluorescence resonance energy transfer ultrahigh-throughput screening assay for targeting the SMAD4–SMAD3–DNA complex” (Journal of Molecular Cell Biology, 2023).)
